In PubChem BioAssay AID330 (DTP/NCI, 2004) one finds T/C data, which are given here for 17 molecules.

Several values for one entry are separate records, joined by “and”; a condition that tells them apart may be missing. Equal entries are not always repeated. Inconclusive results and toxic doses are left out.

The subject of the assay is P388 leukemia ip, CD2F1 mice, survival T/C. Briefly: NCI In Vivo Anticancer Drug Screen. Data for tumor model P388 Leukemia (intraperitoneal) in CD2F1 (CDF1) mice. To be noted: endpoint: median survival time, higher = longer survival. In a few lines: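 Mice carrying the transplanted tumor received test compound or vehicle. Survival was recorded in each group, and the value is the treated-group measurement divided by that of the vehicle-treated control group.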

[1] abbreviates: dose: 50.0 mg/kg/injection, schedule: Q01DX009 (ip), vehicle: saline.
[2] abbreviates: dose: 100.0 mg/kg/injection, schedule: Q01DX009 (ip), vehicle: saline.
Setting [3] is: dose: 100.0 mg/kg/injection, schedule: Q04DX002 (ip), vehicle: saline with Tween-80.
[4] abbreviates: dose: 200.0 mg/kg/injection, schedule: Q04DX002 (ip), vehicle: saline with Tween-80.
Where [5] appears, read: dose: 60.0 mg/kg/injection, schedule: Q01DX005 (ip), vehicle: Klucel (hydroxypropylcellulose) (HPC).
The mark [6] stands for this setting: dose: 120.0 mg/kg/injection, schedule: Q01DX005 (ip), vehicle: Klucel (hydroxypropylcellulose) (HPC).
Where [7] appears, read: dose: 240.0 mg/kg/injection, schedule: Q01DX005 (ip), vehicle: Klucel (hydroxypropylcellulose) (HPC).
The mark [8] stands for this setting: dose: 200.0 mg/kg/injection, schedule: Q01DX009 (ip), vehicle: Klucel (hydroxypropylcellulose) (HPC).
Setting [9] is: dose: 50.0 mg/kg/injection, schedule: Q01DX009 (ip), vehicle: Klucel (hydroxypropylcellulose) (HPC).
[10] abbreviates: dose: 50.0 mg/kg/injection, schedule: Q04DX003 (ip), vehicle: saline with Tween-80.
Where [11] appears, read: dose: 100.0 mg/kg/injection, schedule: Q01DX009 (ip), vehicle: Klucel (hydroxypropylcellulose) (HPC).
The mark [12] stands for this setting: dose: 100.0 mg/kg/injection, schedule: Q04DX003 (ip), vehicle: saline with Tween-80.
The mark [13] stands for this setting: dose: 200.0 mg/kg/injection, schedule: Q04DX003 (ip), vehicle: saline with Tween-80.
Where [14] appears, read: dose: 400.0 mg/kg/injection, schedule: Q04DX003 (ip), vehicle: saline with Tween-80.
Where [15] appears, read: dose: 60.0 mg/kg/injection, schedule: Q01DX005 (ip), vehicle: saline with Tween-80.
[16] abbreviates: dose: 120.0 mg/kg/injection, schedule: Q01DX005 (ip), vehicle: saline with Tween-80.

Consider `CN(C)CCOc1ccc2c(c1)CCC2=O`, for which the T/C is, setting by setting: under setting [1], 108 % of control; under setting [2], 118 % of control; (dose: 200.0 mg/kg/injection, schedule: Q01DX009 (ip), vehicle: saline) 108 % of control.
With `CC(=O)C1C(=O)C(=O)N(c2ccccc2[N+](=O)[O-])C1=O` (stereo not given), the T/C reads like this: (dose: 12.5 mg/kg/injection, schedule: Q01DX005 (ip), vehicle: saline with Tween-80) 101 % of control; (dose: 25.0 mg/kg/injection, schedule: Q01DX005 (ip), vehicle: saline with Tween-80) 107 % of control; (dose: 50.0 mg/kg/injection, schedule: Q01DX005 (ip), vehicle: saline with Tween-80) 100 % of control and 113 % of control.
As for `COc1ccc(NC(=O)C2C(=O)C(=O)N(c3ccc(OC)cc3)C2=O)cc1` (stereo not given), the T/C under setting [3] was 100 % of control and the T/C under setting [4] was 101 % of control.
For `O=c1oc2ccccc2c2c1SC(c1ccncc1)C2` (stereo not given), the T/C reads like this: under setting [5], 91 % of control; under setting [6], 88 % of control; under setting [7], 91 % of control.
On to `COc1cccc(C(=O)CCN(C)C)c1`, for which the T/C is, setting by setting: under setting [1], 98 % of control and 106 % of control; under setting [2], 99 % of control and 105 % of control.
As to `CC(C)CCCC(C)C1CCC2C3CCC4CC(=O)C(C5(O)C(=O)Nc6ccccc65)CC4(C)C3CCC12C` (stereo not given), the T/C (dose: 6.25 mg/kg/injection, schedule: Q01DX009 (ip), vehicle: Klucel (hydroxypropylcellulose) (HPC)) is 95 % of control; the T/C (dose: 12.5 mg/kg/injection, schedule: Q01DX009 (ip), vehicle: Klucel (hydroxypropylcellulose) (HPC)) was 95 % of control; the T/C under setting [8] is 90 % of control.
With `Nc1cc(N)n(N)c(=S)n1`, the T/C was 103 % of control (dose: 25.0 mg/kg/injection, schedule: Q01DX009 (ip), vehicle: Klucel (hydroxypropylcellulose) (HPC)); 100 % of control under setting [9]; 104 % of control under setting [10]; 110 % of control under setting [11]; 103 % of control under setting [12]; 108 % of control under setting [8]. The T/C reads like this: under setting [13], 99 % of control; under setting [14], 100 % of control.
Regarding `N=C(N)c1ccc(OCCCCOc2ccc(N)cc2Cl)cc1`, the T/C reads like this: (dose: 30.0 mg/kg/injection, schedule: Q01DX005 (ip), vehicle: saline with Tween-80) 102 % of control; under setting [15], 106 % of control and 97 % of control; under setting [16], 105 % of control.
Regarding `Cc1ccc(S(=O)(=O)/C=C/C(=O)c2cccs2)cc1`, the T/C is, setting by setting: (dose: 100.0 mg/kg/injection, schedule: Q04DX002 (ip), vehicle: saline) 99 % of control; (dose: 200.0 mg/kg/injection, schedule: Q04DX002 (ip), vehicle: saline) 100 % of control; (dose: 400.0 mg/kg/injection, schedule: Q04DX002 (ip), vehicle: saline) 107 % of control.
Consider `Cc1ccc(NCCN(C)C)c2c(=O)c3cc(O)ccc3sc12`, for which the T/C by setting is: (dose: 1.0 mg/kg/injection, schedule: Q01DX009 (ip), vehicle: saline with Tween-80) 103 % of control; (dose: 8.0 mg/kg/injection, schedule: Q01DX009 (ip), vehicle: Klucel (hydroxypropylcellulose) (HPC)) 180 % of control; (dose: 16.0 mg/kg/injection, schedule: Q01DX009 (ip), vehicle: Klucel (hydroxypropylcellulose) (HPC)) 170 % of control; (dose: 16.0 mg/kg/injection, schedule: Q01DX009 (ip), vehicle: saline with Tween-80) 151 % of control; (dose: 32.0 mg/kg/injection, schedule: Q01DX009 (ip), vehicle: Klucel (hydroxypropylcellulose) (HPC)) 191 % of control; (dose: 32.0 mg/kg/injection, schedule: Q01DX009 (ip), vehicle: saline with Tween-80) 157 % of control. Also, the T/C (dose: 37.0 mg/kg/injection, schedule: Q01DX009 (ip), vehicle: Klucel (hydroxypropylcellulose) (HPC)) is 97 % of control; the T/C under setting [9] was 234 % of control; the T/C (dose: 64.0 mg/kg/injection, schedule: Q01DX009 (ip), vehicle: Klucel (hydroxypropylcellulose) (HPC)) was 265 % of control; the T/C under setting [11] was 87 % of control.
On to `Nc1cc2c(cc1Br)-c1c(C(=O)O)cccc1C2O` (stereo not given), for which the T/C is 113 % of control (dose: 50.0 mg/kg/injection, schedule: Q01DX005 (ip), vehicle: sodium bicarbonate); 100 % of control and 101 % of control under setting [15]; 123 % of control (dose: 100.0 mg/kg/injection, schedule: Q01DX005 (ip), vehicle: sodium bicarbonate); 104 % of control under setting [16]; 123 % of control (dose: 240.0 mg/kg/injection, schedule: Q01DX005 (ip), vehicle: saline with Tween-80); 154 % of control (dose: 480.0 mg/kg/injection, schedule: Q01DX005 (ip), vehicle: saline with Tween-80).
As for `CSc1nccc2ccccc12`, the T/C is, setting by setting: (dose: 12.5 mg/kg/injection, schedule: Q01DX009 (ip), vehicle: other) 96 % of control; (dose: 25.0 mg/kg/injection, schedule: Q01DX009 (ip), vehicle: other) 93 % of control; (dose: 50.0 mg/kg/injection, schedule: Q01DX009 (ip), vehicle: other) 118 % of control.
With `CC(=O)Nc1nc2c(=O)[nH]c(N)nc2n1C1OC(COC(C)=O)C(OC(C)=O)C1OC(C)=O` (stereo not given), the T/C runs as follows: under setting [10], 96 % of control; under setting [12], 100 % of control; under setting [13], 105 % of control; under setting [14], 102 % of control.
For `COc1ccc(-n2c(-c3ccc(-n4c(C)nc5ccc(I)cc5c4=O)cc3)n[nH]c2=S)cc1`, the T/C was 103 % of control (dose: 100.0 mg/kg/injection, schedule: Q04DX002 (ip), vehicle: Klucel (hydroxypropylcellulose) (HPC)); 98 % of control (dose: 200.0 mg/kg/injection, schedule: Q04DX002 (ip), vehicle: Klucel (hydroxypropylcellulose) (HPC)); 98 % of control (dose: 400.0 mg/kg/injection, schedule: Q04DX002 (ip), vehicle: Klucel (hydroxypropylcellulose) (HPC)).
With `COc1cc2c(c(OC)c1OC)-c1cc3c(cc1CC1COC(=O)C1C2)OCO3` (stereo not given), the T/C is 97 % of control and 96 % of control and 102 % of control (dose: 2.5 mg/kg/injection, schedule: Q04DX002 (ip), vehicle: saline with Tween-80); 95 % of control [middle of 6 runs] (dose: 5.0 mg/kg/injection, schedule: Q04DX002 (ip), vehicle: saline with Tween-80); 101 % of control [middle of 6 runs] (dose: 10.0 mg/kg/injection, schedule: Q04DX002 (ip), vehicle: saline with Tween-80); 100 % of control (dose: 12.5 mg/kg/injection, schedule: Q01DX009 (ip), vehicle: saline with Tween-80); 96 % of control and 104 % of control (dose: 20.0 mg/kg/injection, schedule: Q04DX002 (ip), vehicle: saline with Tween-80); 97 % of control (dose: 25.0 mg/kg/injection, schedule: Q01DX009 (ip), vehicle: saline with Tween-80). Moreover, the T/C was 100 % of control (dose: 25.0 mg/kg/injection, schedule: Q04DX002 (ip), vehicle: saline with Tween-80); 95 % of control (dose: 50.0 mg/kg/injection, schedule: Q01DX009 (ip), vehicle: saline with Tween-80); 104 % of control (dose: 50.0 mg/kg/injection, schedule: Q04DX002 (ip), vehicle: saline with Tween-80); 87 % of control and 119 % of control under setting [3]; 91 % of control under setting [4].
For `NC(CCN[N+](=O)[O-])C(=O)O` (stereo not given), the T/C is, setting by setting: (dose: 25.0 mg/kg/injection, schedule: Q01DX005 (ip), vehicle: Klucel (hydroxypropylcellulose) (HPC)) 103 % of control; (dose: 50.0 mg/kg/injection, schedule: Q01DX005 (ip), vehicle: Klucel (hydroxypropylcellulose) (HPC)) 97 % of control; (dose: 100.0 mg/kg/injection, schedule: Q01DX005 (ip), vehicle: Klucel (hydroxypropylcellulose) (HPC)) 96 % of control; (dose: 200.0 mg/kg/injection, schedule: Q01DX005 (ip), vehicle: Klucel (hydroxypropylcellulose) (HPC)) 97 % of control.
Consider `O=[N+]([O-])c1cc(C(F)(F)F)cc([N+](=O)[O-])c1Nc1ccccc1`, for which the T/C by setting is: (dose: 30.0 mg/kg/injection, schedule: Q01DX005 (ip), vehicle: Klucel (hydroxypropylcellulose) (HPC)) 102 % of control; under setting [5], 107 % of control; under setting [6], 104 % of control; under setting [7], 103 % of control.
